Measurements taken from PubChem BioAssay (NCI).
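Protocol summary: plate cells (96-well), add compound at 5 concentrations, incubate 48 h, interpolate endpoints linearly. GI50 = concentration required for 50% inhibition of growth. The concentration for full growth arrest is given as TGI.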

Key:
Test in all cases: DTP human tumour cell line panel, 48 h
[1] = tested on: HCC-2998 colon
[2] = tested on: KM12 colon
[3] = tested on: RXF 393 renal
[4] = tested on: NCI/ADR-RES ovarian
[5] = tested on: NCI-H23 lung
[6] = tested on: NCI-H522 lung
[7] = tested on: ACHN renal
[8] = tested on: 786-0 renal
[9] = tested on: T-47D breast
[10] = tested on: LOX IMVI melanoma
[11] = tested on: HCT-116 colon
[12] = tested on: OVCAR-4 ovarian
[13] = tested on: SF-268 CNS
[14] = tested on: K-562 leukemia
[15] = tested on: HOP-62 NSCLC
[16] = tested on: A498 renal
[17] = tested on: COLO 205 colon
[18] = tested on: MDA-MB-468 breast
[19] = tested on: NCI-H226 lung
[20] = tested on: BT-549 breast
[21] = tested on: SK-MEL-28 melanoma
[22] = tested on: TK-10 renal
[23] = tested on: NCI-H460 lung
[24] = tested on: HCT-15 colon
[25] = tested on: EKVX NSCLC
[26] = tested on: OVCAR-5 ovarian
[27] = tested on: RPMI-8226 leukemia
[28] = tested on: SF-295 CNS
[29] = tested on: DU-145 prostate
[30] = tested on: UACC-257 melanoma
[31] = tested on: SNB-75 CNS
[32] = tested on: SN12C renal
[33] = tested on: PC-3 prostate
[34] = tested on: SK-OV-3 ovarian
[35] = tested on: MOLT-4 leukemia
[36] = tested on: UO-31 renal
[37] = tested on: OVCAR-8 ovarian
[38] = tested on: SW-620 colon
[39] = tested on: MCF7 breast
[40] = tested on: SR leukemia
[41] = tested on: A549 NSCLC
[42] = tested on: SNB-19 CNS
[43] = tested on: HL-60(TB) leukemia
[44] = tested on: M14 melanoma
[45] = tested on: HT29 colon
[46] = tested on: MDA-MB-435
[47] = tested on: SK-MEL-5 melanoma
[48] = tested on: HOP-92 NSCLC
[49] = tested on: MDA-MB-231 breast
[50] = tested on: U251 CNS
[51] = tested on: HS 578T breast
[52] = tested on: UACC-62 melanoma
[53] = tested on: SK-MEL-2 melanoma
[54] = tested on: IGROV1 ovarian
[55] = tested on: OVCAR-3 ovarian
[56] = tested on: CAKI-1 renal
[57] = tested on: MALME-3M melanoma
[58] = tested on: SF-539 CNS
[59] = tested on: CCRF-CEM leukemia

COc1ccccc1-n1cc(C#N)c(N)c1C(=O)c1ccc(Cl)cc1Cl
GI50 [1]: 12.4 µM
TGI [1]: > 100 µM
GI50 [2]: 3.9 µM
TGI [2]: > 100 µM
GI50 [3]: 4.37 µM
TGI [3]: 39.3 µM
GI50 [4]: 3.55 µM
TGI [4]: 64.2 µM
GI50 [5]: 7.55 µM
TGI [5]: > 100 µM
GI50 [6]: 1.87 µM
TGI [6]: 5.12 µM
GI50 [7]: 7.79 µM
TGI [7]: > 100 µM
GI50 [8]: 7.12 µM
TGI [8]: > 100 µM
GI50 [9]: 4.53 µM
TGI [9]: > 100 µM
GI50 [10]: 4.89 µM
TGI [10]: > 100 µM
GI50 [11]: 4.02 µM
TGI [11]: 28.7 µM
GI50 [12]: 8.96 µM
TGI [12]: > 100 µM
GI50 [13]: 9.77 µM
TGI [13]: > 100 µM
GI50 [14]: 3.63 µM
TGI [14]: > 100 µM
GI50 [15]: 6.4 µM
TGI [15]: 87.7 µM
GI50 [16]: 72 µM
TGI [16]: > 100 µM
GI50 [17]: 5.7 µM
TGI [17]: > 100 µM
GI50 [18]: 2.48 µM
TGI [18]: 8.82 µM
GI50 [19]: 5.79 µM
TGI [19]: 64.3 µM
GI50 [20]: 3.41 µM
TGI [20]: 58.5 µM
GI50 [21]: 7.58 µM
TGI [21]: > 100 µM
GI50 [22]: 52.9 µM
TGI [22]: > 100 µM
GI50 [23]: 4.66 µM
TGI [23]: > 100 µM
GI50 [24]: 3.62 µM
TGI [24]: 64.9 µM
GI50 [25]: 8.24 µM
TGI [25]: > 100 µM
GI50 [26]: 9.71 µM
TGI [26]: > 100 µM
GI50 [27]: 9.39 µM
TGI [27]: > 100 µM
GI50 [28]: 3.72 µM
TGI [28]: 27 µM
GI50 [29]: 9.73 µM
TGI [29]: > 100 µM
GI50 [30]: 6.31 µM
TGI [30]: > 100 µM
GI50 [31]: 2.61 µM
TGI [31]: 8.54 µM
GI50 [32]: 5.24 µM
TGI [32]: > 100 µM
GI50 [33]: 5.6 µM
TGI [33]: > 100 µM
GI50 [34]: 3.36 µM
TGI [34]: 28.3 µM
GI50 [35]: 4.84 µM
TGI [35]: > 100 µM
GI50 [36]: 7.87 µM
TGI [36]: > 100 µM
GI50 [37]: 21 µM
TGI [37]: > 100 µM
GI50 [38]: 3.98 µM
TGI [38]: > 100 µM
GI50 [39]: 3.94 µM
TGI [39]: 35.2 µM
GI50 [40]: 3.53 µM
TGI [40]: > 100 µM
GI50 [41]: 7.39 µM
TGI [41]: > 100 µM
GI50 [42]: 6.6 µM
TGI [42]: 61.6 µM
GI50 [43]: 3.15 µM
TGI [43]: 70.4 µM
GI50 [44]: 3.27 µM
TGI [44]: > 100 µM
GI50 [45]: 3.18 µM
TGI [45]: > 100 µM
GI50 [46]: 1.92 µM
TGI [46]: 4.41 µM
GI50 [47]: 4.84 µM
TGI [47]: > 100 µM
GI50 [48]: 16.8 µM
TGI [48]: > 100 µM
GI50 [49]: 9.05 µM
TGI [49]: > 100 µM
GI50 [50]: 4.45 µM
TGI [50]: > 100 µM
GI50 [51]: 3.02 µM
TGI [51]: 58.1 µM
GI50 [52]: 3.67 µM
TGI [52]: 42.8 µM
GI50 [53]: 2.69 µM
TGI [53]: 7.5 µM
GI50 [54]: 7.49 µM
TGI [54]: > 100 µM
GI50 [55]: 3.86 µM
TGI [55]: 18.6 µM
GI50 [56]: 4.7 µM
TGI [56]: 28.4 µM
GI50 [57]: 4.2 µM
TGI [57]: > 100 µM
GI50 [58]: 3.37 µM
TGI [58]: 11.5 µM
GI50 [59]: 4.68 µM
TGI [59]: > 100 µM

Nc1cc(-c2c[nH]c3ccc(Br)cc23)nc2cc(-c3c[nH]c4ccccc34)nn12
GI50 [1]: 1.85 µM
TGI [1]: 3.61 µM
GI50 [2]: 2.21 µM
TGI [2]: 5.31 µM
GI50 [3]: 2.66 µM
TGI [3]: 7.87 µM
GI50 [4]: 3.33 µM
TGI [4]: 13.3 µM
GI50 [5]: 2.36 µM
TGI [5]: 6.64 µM
GI50 [6]: 1.68 µM
TGI [6]: 3.51 µM
GI50 [7]: 2.77 µM
TGI [7]: 9.2 µM
GI50 [8]: 1.63 µM
TGI [8]: 3.54 µM
GI50 [9]: 3.15 µM
TGI [9]: 20.3 µM
GI50 [10]: 1.69 µM
TGI [10]: 3.07 µM
GI50 [11]: 1.77 µM
TGI [11]: 3.39 µM
GI50 [12]: 3.97 µM
TGI [12]: 19 µM
GI50 [13]: 3.72 µM
TGI [13]: 18.5 µM
GI50 [15]: 3.52 µM
TGI [15]: 12.2 µM
GI50 [16]: 2.42 µM
TGI [16]: 7.74 µM
GI50 [17]: 1.73 µM
TGI [17]: 3.33 µM
GI50 [18]: 1.75 µM
TGI [18]: 4.13 µM
GI50 [19]: 6.13 µM
TGI [19]: 41.4 µM
GI50 [20]: 9.32 µM
TGI [20]: 21.8 µM
GI50 [21]: 2.23 µM
TGI [21]: 5.71 µM
GI50 [22]: 2.56 µM
TGI [22]: 12 µM
GI50 [24]: 1.74 µM
TGI [24]: 3.62 µM
GI50 [25]: 2.92 µM
TGI [25]: 10.9 µM
GI50 [26]: 2.08 µM
TGI [26]: 5.36 µM
GI50 [27]: 2.88 µM
TGI [27]: 9.09 µM
GI50 [28]: 1.9 µM
TGI [28]: 4.01 µM
GI50 [29]: 3.88 µM
TGI [29]: 14.4 µM
GI50 [30]: 3.86 µM
TGI [30]: 15.1 µM
GI50 [31]: 2.17 µM
TGI [31]: 11.3 µM
GI50 [32]: 4.03 µM
TGI [32]: 16.4 µM
GI50 [33]: 2.57 µM
TGI [33]: 8.4 µM
GI50 [34]: 7.75 µM
TGI [34]: 21 µM
GI50 [35]: 2.4 µM
TGI [35]: 6.72 µM
GI50 [36]: 2.74 µM
TGI [36]: 11.8 µM
GI50 [37]: 4.06 µM
TGI [37]: 18.1 µM
GI50 [38]: 1.87 µM
TGI [38]: 3.7 µM
GI50 [39]: 2.05 µM
TGI [39]: 5 µM
GI50 [40]: 2.23 µM
TGI [40]: > 100 µM
GI50 [41]: 2.91 µM
TGI [41]: 11.5 µM
GI50 [42]: 3.67 µM
TGI [42]: 14.1 µM
GI50 [43]: 2.84 µM
TGI [43]: 12.7 µM
GI50 [44]: 2.09 µM
TGI [44]: 5.05 µM
GI50 [45]: 1.98 µM
TGI [45]: 4.08 µM
GI50 [46]: 2.95 µM
TGI [46]: 9.98 µM
GI50 [47]: 2.7 µM
TGI [47]: 7.62 µM
GI50 [48]: 2.06 µM
TGI [48]: 6.08 µM
GI50 [49]: 1.9 µM
TGI [49]: 3.63 µM
GI50 [50]: 2 µM
TGI [50]: 4.57 µM
GI50 [51]: 3.11 µM
TGI [51]: 9.62 µM
GI50 [52]: 1.88 µM
TGI [52]: 4.35 µM
GI50 [53]: 2.44 µM
TGI [53]: 7.13 µM
GI50 [54]: 3.55 µM
TGI [54]: 14.6 µM
GI50 [55]: 3.44 µM
TGI [55]: 14 µM
GI50 [56]: 2.2 µM
TGI [56]: 7.33 µM
GI50 [57]: 1.91 µM
TGI [57]: 3.64 µM
GI50 [58]: 1.74 µM
TGI [58]: 3.38 µM
GI50 [59]: 3.05 µM
TGI [59]: 13.2 µM
